Assay results as given in paper PMC8131206 (Nature biomedical engineering, 2021).
Where no end group is shown, it is not given here.

Tests used:
[1] = test system: M. tuberculosis H37Ra (attenuated); settings: 96 h
M. smegmatis Mc^2 155 = settings: Mc^2 155, 48 h
S. aureus (MR) USA300 = settings: USA300, 24 h
S. aureus (MS) NRS72 = settings: MS) NRS72, 24 h
S. aureus (MS) Newman = settings: 24 h
S. mitis NCTC 12261 = settings: NCTC 12261, 24 h
E. faecalis ATCC 29212 = settings: ATCC 29212, 24 h
K. pneumoniae NCTC 9633 = settings: NCTC 9633, 24 h
E. coli DH5α = settings: 24 h
S. enterica CDC 6516–60 = settings: CDC 6516–60, 24 h
P. aeruginosa PAO1 = settings: PAO1, 24 h
A. baumannii 2208 = settings: 2208, 24 h
H. influenzae TD-4 = settings: TD-4, 24 h

Substance	MIC [1] [µM]	MIC (M. smegmatis Mc^2 155) [µM]	MIC (S. aureus (MR) USA300) [µM]	MIC (S. aureus (MS) NRS72) [µM]	MIC (S. aureus (MS) Newman) [µM]	MIC (S. mitis NCTC 12261) [µM]	MIC (E. faecalis ATCC 29212) [µM]	MIC (K. pneumoniae NCTC 9633) [µM]	MIC (E. coli DH5α) [µM]	MIC (S. enterica CDC 6516–60) [µM]	MIC (P. aeruginosa PAO1) [µM]	MIC (A. baumannii 2208) [µM]	MIC (H. influenzae TD-4) [µM]
KRWWKWWRR-NH2 [AMP2]	10	20	80	80	40	>80	>80	20	80	80	20	80	80
RRWWRWVVW-NH2 [AMP3]	20	20	20	20	20	–	80	2.5	>80	80	80	10	–
WKWLKKWIK-NH2 [AMP1]	20	20	>80	>80	80	20	80	20	>80	40	10	25	80
